Data reported in publication PMC5012427 (Molecular cell, 2016).
Residue numbers refer to the chain shown, from its start.

Experiments:
Coq8^NΔ41 (Coq8p) = target: T1, Coq8^NΔ41 (Coq8p) (Saccharomyces cerevisiae, UniProt P27697, A197G); experiment: nucleotide binding; conditions: A-rich loop A-to-G mutant
T1 sequence (P27697 42-501 A197G): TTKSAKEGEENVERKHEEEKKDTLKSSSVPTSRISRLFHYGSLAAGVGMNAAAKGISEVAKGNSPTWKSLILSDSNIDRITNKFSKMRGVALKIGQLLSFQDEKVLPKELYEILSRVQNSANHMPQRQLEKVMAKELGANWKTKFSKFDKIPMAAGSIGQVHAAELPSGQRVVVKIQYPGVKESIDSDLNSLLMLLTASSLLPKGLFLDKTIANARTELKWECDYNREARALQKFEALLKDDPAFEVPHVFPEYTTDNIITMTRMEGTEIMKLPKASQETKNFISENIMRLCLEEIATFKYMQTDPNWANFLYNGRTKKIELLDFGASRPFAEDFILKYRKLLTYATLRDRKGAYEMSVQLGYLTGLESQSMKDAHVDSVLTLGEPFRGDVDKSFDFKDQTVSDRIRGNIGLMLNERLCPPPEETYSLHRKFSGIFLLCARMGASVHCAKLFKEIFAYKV

MBP-Coq8^NΔ41 = target: T2, MBP-Coq8^NΔ41 (Saccharomyces cerevisiae, UniProt P27697); experiment: co-purification, LC-MS/MS lipidomics; format: binding; conditions: co-purified from E. coli; WT compared with mutants
T2 sequence (P27697 42-501): T1 sequence (P27697 42-501 A197G) with G156A

Compound: Nc1ncnc2c1ncn2[C@@H]1O[C@H](COP(=O)(O)OP(=O)(O)O)[C@@H](O)[C@H]1O [ADP]
- nucleotide binding (method in supplement) (Coq8^NΔ41 (Coq8p)): selectivity for ADP over ATP that can be reversed by an A-rich loop A-to-G mutation

Compound: CC(C)=CCC/C(C)=C/CC/C(C)=C/CC/C(C)=C/CC/C(C)=C/CC/C(C)=C/CC/C(C)=C/Cc1ccccc1O [heptaprenylphenol]
- co-purification, LC-MS/MS lipidomics (MBP-Coq8^NΔ41): binding of OHB, OPP, and heptaprenylphenol (HPP) was decreased by Coq8p active site mutations
